target: KRas G12D/Q61H double mutant (Homo sapiens (Human), UniProt P01116, G12D/Q61H); experiment: Ras GTP binding domain inhibition assay (labeled GTP); settings: 20 μM compound; KRas G12D/Q61H double mutant; read-out: % Inhibition at 20 μM of K-Ras mutant and wild-type protein, KRas G12D Q61H
Summary of the method: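 Fluorescence read-out of Cy3-/Cy5-GTP remaining bound to nickel-immobilized His-KRas after washes. Protein was coated overnight at 4° C, then exposed to compound for 3 h at room temperature before a 45 min labeled-GTP incubation.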

KRas G12D/Q61H double mutant, sequence (P01116-2 other isoform, or with tags, fused parts or gaps G12D/Q61H): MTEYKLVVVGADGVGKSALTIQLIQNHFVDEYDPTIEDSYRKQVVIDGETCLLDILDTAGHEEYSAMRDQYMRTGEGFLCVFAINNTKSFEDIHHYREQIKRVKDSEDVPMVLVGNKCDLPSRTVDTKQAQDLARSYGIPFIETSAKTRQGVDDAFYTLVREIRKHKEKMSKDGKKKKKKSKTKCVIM

| inhibition at 20 µM | Structure (SMILES) |
| --- | --- |
| 25 to 50% | COc1ccc(CN(C(C)C2CC2)S(=O)(=O)c2cccs2)cc1 (stereo not shown) |
| 25 to 50% | COc1ccc(CCN/C(=N/C(=O)Nc2ccccc2)Nc2nc(C)cc(C)n2)cc1OC |
| 1 to 25% | NC(=O)CCN1CCOC(c2nc(-c3ccccc3)cs2)C1 (stereo not shown) |
| 25 to 50% | CC(C)=CC1C(C(=O)NCc2ccc(OCC(F)(F)F)nc2)C1(C)C (stereo not shown) |
| 25 to 50% | COC(=O)CCc1sc(NC2CCCCC2)nc1-c1ccc(OC)cc1 |
| 25 to 50% | COc1ccccc1CN(Cc1cccs1)C(=O)c1ccc(COC(C)C)cc1 |
| 25 to 50% | C=CCn1c(C)cc(C(=O)CSc2nc3ccccc3c(=O)n2C(C)COC)c1C (stereo not shown) |
| 25 to 50% | COc1ccc(-c2oc3ncn(CCCn4ccnc4)c(=N)c3c2-c2ccc(OC)cc2)cc1 |
| 25 to 50% | CCC(C)Sc1ccc(NC(=O)c2ccccc2OCCOC)c(C(F)(F)F)c1 (stereo not shown) |
| 25 to 50% | Cc1sc2nc(-c3ccccn3)nc(NCC(=O)N3CCC(O)CC3)c2c1-c1ccccc1 |
| 25 to 50% | O=[N+]([O-])c1cc(C(F)(F)F)ccc1NCc1ccc2c(c1)OCCCO2 |
| 25 to 50% | Cc1cc2oc(=O)cc(CN(C)Cc3c(C)nn(Cc4ccccc4Cl)c3C)c2cc1C |
| 25 to 50% | CCCOc1ccc2ccccc2c1CN(C)Cc1nnc(-c2ccccc2)o1 |
| 25 to 50% | COC(C)c1nc(CN(Cc2ccc(C#N)cc2)Cc2cccc(F)c2)cs1 (stereo not shown) |

| Structure (SMILES) | inhibition at 20 µM |
| --- | --- |
| COc1ccc(CCN2CCN(c3ccc(C#N)c(C(F)(F)F)c3)CC2)cc1 | 25 to 50% |

same assay, conditions: 20 μM compound; read-out: % Inhibition at 20 μM KRas G12D Q61H

| inhibition at 20 µM | Structure (SMILES) |
| --- | --- |
| 25 to 50% | Cc1nc(-c2ccc(F)cc2)sc1C(=O)NCCN(C)c1ccccc1 |
| 25 to 50% | COCCN(c1nc2ccccc2s1)S(=O)(=O)c1ccccc1 |
| 25 to 50% | CCCOc1ccc(C(F)(F)F)cc1NCc1ncc(C)o1 |
| 25 to 50% | Nc1nc(-c2ccccn2)nn1C(=O)CN1CCS(=O)(=O)CC1 |
| 1 to 25% | CCOC(=O)NC1CCN(C(=O)c2csc3c(O)nc(N)nc23)CC1 [drawing 2667] |
| 1 to 25% | COc1ccccc1CC(=O)N(CC(F)(F)F)C1CCCOC1 (stereo not shown) |
| 25 to 50% | N#Cc1csc2nc(-c3ccccn3)nc(N3CCOCC3)c12 [drawing 2819] |
| 25 to 50% | CN(C)S(=O)(=O)c1ccc(N2CCCC2)c(C(=O)NCCCN2CCCC2=O)c1 |
| 1 to 25% | Fc1ccc(OCCSc2nnc(C3COc4ccccc4O3)o2)cc1 (stereo not shown) |
| 1 to 25% | Cc1nc(CC(C)C)sc1C(=O)Nc1nnc(-c2ccccn2)[nH]1 |
| 51 to 75% | COCCOCCN(C)C(=O)c1csc2c(O)nc(-c3ccccn3)nc12 [drawing 2686] |
| 25 to 50% | O=C(Nc1nnc(-c2ccccn2)[nH]1)c1ccc(Cn2cncn2)cc1 |
| 25 to 50% | CC(C)N1CC(C(=O)Nc2nnc(-c3ccccn3)[nH]2)CC1=O (stereo not shown) |
| 25 to 50% | CC1=C(c2ccccc2)C2C(=O)NC(c3cnccn3)=NC2S1 (stereo not shown) |
| 1 to 25% | COc1ccccc1CN(Cc1cccs1)C(=O)c1ccc(-c2nnn[nH]2)cc1 |
| 25 to 50% | COc1ccc(CC(=O)Nc2nc(-c3ccccn3)cs2)cc1OC |
| 51 to 75% | c1ccc(-c2nc(N3CCOCC3)c3ccsc3n2)nc1 [drawing 2702] |
| 25 to 50% | CC(Nc1nc(-c2ccccn2)nc2c1CCC2)c1ccncc1 (stereo not shown) |

| inhibition at 20 µM | Structure (SMILES) |
| --- | --- |
| 25 to 50% | O=C(c1ccc(-c2ccccc2Cl)o1)N(Cc1cccs1)C1CC1 |
| 25 to 50% | Nc1nc(O)c2scc(C(=O)N3CCC(N4CCCC4=O)CC3)c2n1 [drawing 2663] |
| 25 to 50% | COc1ccc(OCCSc2nnc(C(C)Oc3ccc(F)cc3)o2)cc1 (stereo not shown) |
| 1 to 25% | Nc1nc(O)c2scc(Br)c2n1 [drawing 2657] |
| 1 to 25% | N#Cc1ccccc1S(=O)(=O)NC(c1ccccc1)c1ccccn1 (stereo not shown) |
| 25 to 50% | N#Cc1ccc(-c2nnc(CN3CCOc4ccccc4C3)o2)cc1 |
| 25 to 50% | O=C(Nc1nc(-c2cccnc2)cs1)c1ccccn1 |
| 25 to 50% | CN(C)c1ccccc1NCc1cc(Br)c2c(c1)OCCCO2 |
| 1 to 25% | COC(=O)CCN(Cc1ccc(Oc2ccc(OC)cc2)cc1)C1CCOCC1 |
| 25 to 50% | CCc1ccc(OCC(=O)Nc2nnc(-c3ccccn3)[nH]2)cc1 |
| 1 to 25% | CN(Cc1nnc(-c2ccccc2)o1)Cc1ccccc1N1CCCC1 |
| 25 to 50% | O=c1nc(-c2ccccn2)[nH]c2scc(-c3ccco3)c12 |
| 1 to 25% | CS(=O)(=O)CCCNC(=O)c1csc2nc(-c3ccccn3)nc(N3CCOCC3)c12 [drawing 2811] |
| 1 to 25% | COCC1CCN(C(=O)c2csc3c(O)nc(N)nc23)CC1 [drawing 2659] |
| 25 to 50% | Clc1ccccc1-c1nnc(CN2CCCc3ccccc32)o1 |
| 25 to 50% | CC1CN(Cc2ccccc2)CCN1C(=O)c1csc2c(O)nc(-c3ccccn3)nc12 (stereo not shown) |
| 25 to 50% | O=C(NCc1ccccn1)c1ccn(-c2cccc(Cl)c2)n1 |
| 25 to 50% | Cc1cnc(-c2ccccn2)nc1NC(=O)COCc1ccnc(O)c1 [drawing 2816] |

same assay, conditions: 20 μM; read-out: KRas G12D Q61H % Inh.

| inhibition at 20 µM | Structure (SMILES) |
| --- | --- |
| 51 to 75% | Cc1nc(-c2ccccn2)nc(O)c1CCC(=O)Nc1ccc(C(C)C)cc1 [drawing 2598] |
| 51 to 75% | CC(C)c1noc(CCCC(=O)Nc2nnc(-c3ccccn3)[nH]2)n1 [drawing 2483] |
| 76 to 100% | O=C(Nc1nnc(-c2ccccn2)[nH]1)c1csc(-c2ccoc2)n1 |
| 51 to 75% | O=C(Nc1nnc(-c2ccccn2)[nH]1)C1CC(=O)N(CCc2ccccc2)C1 (stereo not shown) [drawing 2494] |
| 51 to 75% | O=C(CCc1c[nH]c2ccccc12)Nc1nnc(-c2ccccn2)[nH]1 [drawing 2471] |
| 51 to 75% | O=C(CCc1cnn(-c2ccccc2)c1)Nc1nnc(-c2ccccn2)[nH]1 [drawing 2450] |
| 51 to 75% | O=C(Nc1nnc(-c2ccccn2)[nH]1)c1ccc(Oc2cccnc2)cc1 [drawing 2550] |
| 1 to 25% | O=C(c1ccc2c(c1)CCO2)N1CCCc2c(O)nc(-c3ccccn3)nc21 |
| 51 to 75% | NC(=O)c1ccc(OCC(=O)Nc2nnc(-c3ccccn3)[nH]2)cc1 [drawing 2538] |
| 51 to 75% | CN(CC(=O)Nc1nnc(-c2ccccn2)[nH]1)S(C)(=O)=O [drawing 2496] |
| 51 to 75% | CC(C)(C)c1noc(CCC(=O)Nc2nnc(-c3ccccn3)[nH]2)n1 [drawing 2493] |
| 76 to 100% | CN(CC(=O)Nc1nnc(-c2ccccn2)[nH]1)S(=O)(=O)c1ccccc1 [drawing 2558] |
| 51 to 75% | CCc1ccccc1OCC(=O)Nc1nnc(-c2ccccn2)[nH]1 [drawing 2530] |
| 51 to 75% | CC(Oc1ccc(C#N)cc1)C(=O)Nc1nnc(-c2ccccn2)[nH]1 (stereo not shown) [drawing 2525] |
| 51 to 75% | O=C(Cn1c(=O)oc2ccccc21)Nc1nnc(-c2ccccn2)[nH]1 [drawing 2502] |
| 51 to 75% | O=C(COc1ccccc1)Nc1nnc(-c2ccccn2)[nH]1 [drawing 2545] |
| 51 to 75% | CC(OCC(F)(F)F)C(=O)Nc1nnc(-c2ccccn2)[nH]1 (stereo not shown) [drawing 2479] |
| 51 to 75% | O=C(Nc1nc(-c2ccccn2)cs1)c1ccc2nccnc2c1 [drawing 2570] |
| 51 to 75% | O=C(Nc1nnc(-c2ccccn2)[nH]1)c1ccc(NC(=O)c2ccccn2)cc1 [drawing 2528] |

| Structure (SMILES) | inhibition at 20 µM |
| --- | --- |
| O=c1nc(-c2ccccn2)[nH]c2c1sc1ccccc12 [drawing 2592] | 51 to 75% |

same assay, conditions: read-out: KRas G12D Q61H IC50

| Structure (SMILES) | IC50 |
| --- | --- |
| O=C(CCc1c[nH]c2ccccc12)Nc1nnc(-c2ccccn2)[nH]1 [drawing 2471] | < 5 µM |
| O=c1nc(-c2ccccn2)[nH]c2c1sc1ccccc12 [drawing 2592] | 11 to 30 µM |
